In BindingDB's records for doi:10.7270/Q28C9TSJ (Nmmlsc, 2011) one finds EC50 data, which are given here for 1 molecule.

In the assay the target is T1, Multidrug resistance protein CDR2 (Candida albicans (strain SC5314 / ATCC MYA-2876), UniProt P78595).
T1 sequence (P78595 whole entry): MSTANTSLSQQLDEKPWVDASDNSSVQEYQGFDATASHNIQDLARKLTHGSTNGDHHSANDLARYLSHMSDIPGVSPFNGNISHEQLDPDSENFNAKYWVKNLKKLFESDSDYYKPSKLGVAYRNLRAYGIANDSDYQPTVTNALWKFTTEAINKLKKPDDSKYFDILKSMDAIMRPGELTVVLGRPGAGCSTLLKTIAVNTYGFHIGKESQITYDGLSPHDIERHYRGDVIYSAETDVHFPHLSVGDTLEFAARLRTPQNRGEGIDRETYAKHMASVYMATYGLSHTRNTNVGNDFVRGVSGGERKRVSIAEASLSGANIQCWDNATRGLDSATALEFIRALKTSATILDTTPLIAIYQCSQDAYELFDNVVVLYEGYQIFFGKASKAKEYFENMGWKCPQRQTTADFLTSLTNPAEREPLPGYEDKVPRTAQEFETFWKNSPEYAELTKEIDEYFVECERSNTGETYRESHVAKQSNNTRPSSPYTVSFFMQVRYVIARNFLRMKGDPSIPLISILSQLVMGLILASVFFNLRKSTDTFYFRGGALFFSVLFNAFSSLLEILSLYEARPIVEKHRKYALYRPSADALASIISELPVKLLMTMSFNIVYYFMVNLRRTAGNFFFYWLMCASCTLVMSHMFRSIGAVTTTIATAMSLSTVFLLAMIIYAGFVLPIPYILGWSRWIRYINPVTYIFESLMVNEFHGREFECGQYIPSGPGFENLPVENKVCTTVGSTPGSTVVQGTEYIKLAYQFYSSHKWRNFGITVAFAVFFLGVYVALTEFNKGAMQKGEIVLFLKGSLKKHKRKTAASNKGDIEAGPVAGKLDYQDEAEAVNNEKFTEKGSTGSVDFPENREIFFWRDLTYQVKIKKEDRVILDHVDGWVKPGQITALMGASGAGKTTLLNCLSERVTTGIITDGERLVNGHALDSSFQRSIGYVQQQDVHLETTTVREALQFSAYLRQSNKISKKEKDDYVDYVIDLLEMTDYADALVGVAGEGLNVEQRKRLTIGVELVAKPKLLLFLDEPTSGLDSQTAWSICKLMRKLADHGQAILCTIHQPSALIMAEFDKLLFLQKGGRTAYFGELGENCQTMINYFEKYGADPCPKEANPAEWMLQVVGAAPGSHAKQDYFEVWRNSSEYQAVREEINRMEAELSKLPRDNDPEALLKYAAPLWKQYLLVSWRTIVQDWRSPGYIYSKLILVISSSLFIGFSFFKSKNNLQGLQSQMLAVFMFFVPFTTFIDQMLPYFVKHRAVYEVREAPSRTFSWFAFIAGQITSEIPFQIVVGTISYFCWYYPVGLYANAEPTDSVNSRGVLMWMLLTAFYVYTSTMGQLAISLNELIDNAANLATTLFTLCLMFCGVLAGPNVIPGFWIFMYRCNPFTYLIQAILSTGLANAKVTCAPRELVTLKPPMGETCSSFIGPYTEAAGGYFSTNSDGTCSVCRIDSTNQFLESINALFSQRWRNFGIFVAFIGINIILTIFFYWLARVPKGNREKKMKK
Put plainly: inhibition of Nile Red efflux via Candida CDR2 – S. cerevisiae AD1-8u, singleplex, Cherry Pick1 hits, dose response (AID 588604).

pEC50: −log10 of the molar value.

As a reminder, the pEC50 is −log10 of the EC50, conventionally taken in molar units. The molecule `O=[N+]([O-])c1cc(CN=Nc2ccccn2)ccc1Cl` had a pEC50 of 5.03.
